In general, viability, T/C refers to the ratio of treated to control.
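Also: spheroids exposed to compounds for seven days; 100% = DMSO vehicle control viability.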

The first test relates to 454973-116-R2-J3-PDC spheroids, viability, % test/control. The experiment in a line: Anticancer human tumor 454973-116-R2-J3-PDC patient-derived pancreatic carcinoma cell line growth inhibition [GQUAD]. Conditions: second compound 3.16 µM; first compound 0.1 µM; active compounds read low; spheroids with HUVEC and MSC. In short, it runs like this:
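Multi-cell-type spheroids of tumor cells with HUVEC and mesenchymal stem cells, treated with drug combinations. Concentrations descend in half-log steps from near clinical Cmax, or from 10 microM where Cmax is unknown; viability read-out.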
Turning to `CC1COCCN1c1cc(C2(S(C)(=N)=O)CC2)nc(-c2ccnc3[nH]ccc23)n1` (configuration not stated) + Cc1[nH]c2ccc(F)cc2c1-c1nc2c3cccnc3c3ncccc3c2[nH]1, the viability, T/C was 105%.
As for `COc1ccc([C@@H](O)c2cc(-c3ncnc4cc(N5CCOCC5)ccc34)c(F)cc2Cl)nn1` + Cc1[nH]c2ccc(F)cc2c1-c1nc2c3cccnc3c3ncccc3c2[nH]1, the viability, T/C was 94.1%.

Still in this test, the particulars now being: second compound 3.16 µM; first compound 0.316 µM; active compounds read low; spheroids with HUVEC and MSC.
For the compound `CC1COCCN1c1cc(-c2ccnn2C)c2ccnc(-c3ccn[nH]3)c2n1` (configuration not stated) + Cc1[nH]c2ccc(F)cc2c1-c1nc2c3cccnc3c3ncccc3c2[nH]1, the viability, T/C was 30.2%.
For the compound `CC1COCCN1c1cc(C2(O)CC3CCC(C2)O3)c2cnn(-c3ccn[nH]3)c2n1` (configuration not stated) + Cc1[nH]c2ccc(F)cc2c1-c1nc2c3cccnc3c3ncccc3c2[nH]1, the viability, T/C is 31.7%.
On the same count and under the same terms, in the case of `CC1COCCN1c1cc(C2(S(C)(=N)=O)CC2)nc(-c2ccnc3[nH]ccc23)n1` (configuration not stated) + Cc1[nH]c2ccc(F)cc2c1-c1nc2c3cccnc3c3ncccc3c2[nH]1 it was 95.7%; in that of `COc1ccc([C@@H](O)c2cc(-c3ncnc4cc(N5CCOCC5)ccc34)c(F)cc2Cl)nn1` + Cc1[nH]c2ccc(F)cc2c1-c1nc2c3cccnc3c3ncccc3c2[nH]1, 92.3%.

Still in this test, the particulars now being: second compound 3.16 µM; first compound 1 µM; active compounds read low; spheroids with HUVEC and MSC.
With `CC1COCCN1c1cc(-c2ccnn2C)c2ccnc(-c3ccn[nH]3)c2n1` (configuration not stated) + Cc1[nH]c2ccc(F)cc2c1-c1nc2c3cccnc3c3ncccc3c2[nH]1, the viability, T/C is 20.8%.
For the compound `CC1COCCN1c1cc(C2(O)CC3CCC(C2)O3)c2cnn(-c3ccn[nH]3)c2n1` (configuration not stated) + Cc1[nH]c2ccc(F)cc2c1-c1nc2c3cccnc3c3ncccc3c2[nH]1, the viability, T/C was 21.8%.
Take `CC1COCCN1c1cc(C2(S(C)(=N)=O)CC2)nc(-c2ccnc3[nH]ccc23)n1` (configuration not stated) + Cc1[nH]c2ccc(F)cc2c1-c1nc2c3cccnc3c3ncccc3c2[nH]1: the viability, T/C was 87%.
Take `COc1ccc([C@@H](O)c2cc(-c3ncnc4cc(N5CCOCC5)ccc34)c(F)cc2Cl)nn1` + Cc1[nH]c2ccc(F)cc2c1-c1nc2c3cccnc3c3ncccc3c2[nH]1: the viability, T/C was 91.2%.

The same test, now with this note: second compound 3.16 µM; first compound 3.16 µM; active compounds read low; spheroids with HUVEC and MSC.
Take `CC1COCCN1c1cc(-c2ccnn2C)c2ccnc(-c3ccn[nH]3)c2n1` (configuration not stated) + Cc1[nH]c2ccc(F)cc2c1-c1nc2c3cccnc3c3ncccc3c2[nH]1: the viability, T/C was 23.5%.
In the case of `CC1COCCN1c1cc(C2(O)CC3CCC(C2)O3)c2cnn(-c3ccn[nH]3)c2n1` (configuration not stated) + Cc1[nH]c2ccc(F)cc2c1-c1nc2c3cccnc3c3ncccc3c2[nH]1, the viability, T/C was 21.6%.
Regarding `CC1COCCN1c1cc(C2(S(C)(=N)=O)CC2)nc(-c2ccnc3[nH]ccc23)n1` (configuration not stated) + Cc1[nH]c2ccc(F)cc2c1-c1nc2c3cccnc3c3ncccc3c2[nH]1, the viability, T/C is 60.2%.
On the same count and under the same terms, with `COc1ccc([C@@H](O)c2cc(-c3ncnc4cc(N5CCOCC5)ccc34)c(F)cc2Cl)nn1` + Cc1[nH]c2ccc(F)cc2c1-c1nc2c3cccnc3c3ncccc3c2[nH]1 the figure was 66%.

Still in this test, the particulars now being: second compound 3.16 µM; first compound 10 µM; active compounds read low; spheroids with HUVEC and MSC.
Consider `CC1COCCN1c1cc(-c2ccnn2C)c2ccnc(-c3ccn[nH]3)c2n1` (configuration not stated) + Cc1[nH]c2ccc(F)cc2c1-c1nc2c3cccnc3c3ncccc3c2[nH]1, for which the viability, T/C is 24.9%.
With `CC1COCCN1c1cc(C2(O)CC3CCC(C2)O3)c2cnn(-c3ccn[nH]3)c2n1` (configuration not stated) + Cc1[nH]c2ccc(F)cc2c1-c1nc2c3cccnc3c3ncccc3c2[nH]1, the viability, T/C is 12.6%.
Turning to `CC1COCCN1c1cc(C2(S(C)(=N)=O)CC2)nc(-c2ccnc3[nH]ccc23)n1` (configuration not stated) + Cc1[nH]c2ccc(F)cc2c1-c1nc2c3cccnc3c3ncccc3c2[nH]1, the viability, T/C is 30.3%.
`COc1ccc([C@@H](O)c2cc(-c3ncnc4cc(N5CCOCC5)ccc34)c(F)cc2Cl)nn1` + Cc1[nH]c2ccc(F)cc2c1-c1nc2c3cccnc3c3ncccc3c2[nH]1: the viability, T/C was 50.7%.

The same test, now with this note: second compound 10 µM; first compound 0.0316 µM; active compounds read low; spheroids with HUVEC and MSC.
For the compound `CC1COCCN1c1cc(-c2ccnn2C)c2ccnc(-c3ccn[nH]3)c2n1` (configuration not stated) + Cc1[nH]c2ccc(F)cc2c1-c1nc2c3cccnc3c3ncccc3c2[nH]1, the viability, T/C is 81.6%.
With `CC1COCCN1c1cc(C2(O)CC3CCC(C2)O3)c2cnn(-c3ccn[nH]3)c2n1` (configuration not stated) + Cc1[nH]c2ccc(F)cc2c1-c1nc2c3cccnc3c3ncccc3c2[nH]1, the viability, T/C is 79.5%.
In the case of `CC1COCCN1c1cc(C2(S(C)(=N)=O)CC2)nc(-c2ccnc3[nH]ccc23)n1` (configuration not stated) + Cc1[nH]c2ccc(F)cc2c1-c1nc2c3cccnc3c3ncccc3c2[nH]1, the viability, T/C is 86.7%.
The same measure, in the same setting: in the case of `COc1ccc([C@@H](O)c2cc(-c3ncnc4cc(N5CCOCC5)ccc34)c(F)cc2Cl)nn1` + Cc1[nH]c2ccc(F)cc2c1-c1nc2c3cccnc3c3ncccc3c2[nH]1 it was 89.2%.

Still in this test, the particulars now being: second compound 10 µM; first compound 0.1 µM; active compounds read low; spheroids with HUVEC and MSC.
As for `CC1COCCN1c1cc(-c2ccnn2C)c2ccnc(-c3ccn[nH]3)c2n1` (configuration not stated) + Cc1[nH]c2ccc(F)cc2c1-c1nc2c3cccnc3c3ncccc3c2[nH]1, the viability, T/C is 53.1%.
On to `CC1COCCN1c1cc(C2(O)CC3CCC(C2)O3)c2cnn(-c3ccn[nH]3)c2n1` (configuration not stated) + Cc1[nH]c2ccc(F)cc2c1-c1nc2c3cccnc3c3ncccc3c2[nH]1, for which the viability, T/C was 53.6%.
With `CC1COCCN1c1cc(C2(S(C)(=N)=O)CC2)nc(-c2ccnc3[nH]ccc23)n1` (configuration not stated) + Cc1[nH]c2ccc(F)cc2c1-c1nc2c3cccnc3c3ncccc3c2[nH]1, the viability, T/C is 84%.
For the compound `COc1ccc([C@@H](O)c2cc(-c3ncnc4cc(N5CCOCC5)ccc34)c(F)cc2Cl)nn1` + Cc1[nH]c2ccc(F)cc2c1-c1nc2c3cccnc3c3ncccc3c2[nH]1, the viability, T/C was 80.2%.

The test is the same for the next values; noted with them: second compound 10 µM; first compound 0.316 µM; active compounds read low; spheroids with HUVEC and MSC.
As for `CC1COCCN1c1cc(-c2ccnn2C)c2ccnc(-c3ccn[nH]3)c2n1` (configuration not stated) + Cc1[nH]c2ccc(F)cc2c1-c1nc2c3cccnc3c3ncccc3c2[nH]1, the viability, T/C was 29.8%.
Still for that read-out and setting: with `CC1COCCN1c1cc(C2(O)CC3CCC(C2)O3)c2cnn(-c3ccn[nH]3)c2n1` (configuration not stated) + Cc1[nH]c2ccc(F)cc2c1-c1nc2c3cccnc3c3ncccc3c2[nH]1 the figure was 26.2%; with `CC1COCCN1c1cc(C2(S(C)(=N)=O)CC2)nc(-c2ccnc3[nH]ccc23)n1` (configuration not stated) + Cc1[nH]c2ccc(F)cc2c1-c1nc2c3cccnc3c3ncccc3c2[nH]1, 89.6%; with `COc1ccc([C@@H](O)c2cc(-c3ncnc4cc(N5CCOCC5)ccc34)c(F)cc2Cl)nn1` + Cc1[nH]c2ccc(F)cc2c1-c1nc2c3cccnc3c3ncccc3c2[nH]1, 93.9%.

The test is the same for the next values; noted with them: second compound 10 µM; first compound 1 µM; active compounds read low; spheroids with HUVEC and MSC.
Turning to `CC1COCCN1c1cc(-c2ccnn2C)c2ccnc(-c3ccn[nH]3)c2n1` (configuration not stated) + Cc1[nH]c2ccc(F)cc2c1-c1nc2c3cccnc3c3ncccc3c2[nH]1, the viability, T/C is 18.3%.
Turning to `CC1COCCN1c1cc(C2(O)CC3CCC(C2)O3)c2cnn(-c3ccn[nH]3)c2n1` (configuration not stated) + Cc1[nH]c2ccc(F)cc2c1-c1nc2c3cccnc3c3ncccc3c2[nH]1, the viability, T/C was 22.4%.
On to `CC1COCCN1c1cc(C2(S(C)(=N)=O)CC2)nc(-c2ccnc3[nH]ccc23)n1` (configuration not stated) + Cc1[nH]c2ccc(F)cc2c1-c1nc2c3cccnc3c3ncccc3c2[nH]1, for which the viability, T/C was 86.2%.
`COc1ccc([C@@H](O)c2cc(-c3ncnc4cc(N5CCOCC5)ccc34)c(F)cc2Cl)nn1` + Cc1[nH]c2ccc(F)cc2c1-c1nc2c3cccnc3c3ncccc3c2[nH]1: the viability, T/C is 72.2%.

Staying with this test, now noted: second compound 10 µM; first compound 3.16 µM; active compounds read low; spheroids with HUVEC and MSC.
Turning to `CC1COCCN1c1cc(-c2ccnn2C)c2ccnc(-c3ccn[nH]3)c2n1` (configuration not stated) + Cc1[nH]c2ccc(F)cc2c1-c1nc2c3cccnc3c3ncccc3c2[nH]1, the viability, T/C is 23.1%.
As for `CC1COCCN1c1cc(C2(O)CC3CCC(C2)O3)c2cnn(-c3ccn[nH]3)c2n1` (configuration not stated) + Cc1[nH]c2ccc(F)cc2c1-c1nc2c3cccnc3c3ncccc3c2[nH]1, the viability, T/C was 20.3%.
For `CC1COCCN1c1cc(C2(S(C)(=N)=O)CC2)nc(-c2ccnc3[nH]ccc23)n1` (configuration not stated) + Cc1[nH]c2ccc(F)cc2c1-c1nc2c3cccnc3c3ncccc3c2[nH]1, the viability, T/C is 51.8%.
With `COc1ccc([C@@H](O)c2cc(-c3ncnc4cc(N5CCOCC5)ccc34)c(F)cc2Cl)nn1` + Cc1[nH]c2ccc(F)cc2c1-c1nc2c3cccnc3c3ncccc3c2[nH]1, the viability, T/C is 66.9%.

The same test, now with this note: second compound 10 µM; first compound 10 µM; active compounds read low; spheroids with HUVEC and MSC.
Take `CC1COCCN1c1cc(-c2ccnn2C)c2ccnc(-c3ccn[nH]3)c2n1` (configuration not stated) + Cc1[nH]c2ccc(F)cc2c1-c1nc2c3cccnc3c3ncccc3c2[nH]1: the viability, T/C was 22.6%.
Regarding `CC1COCCN1c1cc(C2(O)CC3CCC(C2)O3)c2cnn(-c3ccn[nH]3)c2n1` (configuration not stated) + Cc1[nH]c2ccc(F)cc2c1-c1nc2c3cccnc3c3ncccc3c2[nH]1, the viability, T/C is 12.6%.
On to `CC1COCCN1c1cc(C2(S(C)(=N)=O)CC2)nc(-c2ccnc3[nH]ccc23)n1` (configuration not stated) + Cc1[nH]c2ccc(F)cc2c1-c1nc2c3cccnc3c3ncccc3c2[nH]1, for which the viability, T/C is 30.1%.
With `COc1ccc([C@@H](O)c2cc(-c3ncnc4cc(N5CCOCC5)ccc34)c(F)cc2Cl)nn1` + Cc1[nH]c2ccc(F)cc2c1-c1nc2c3cccnc3c3ncccc3c2[nH]1, the viability, T/C is 43.4%.

(Values after PubChem BioAssay AID2060508 (Molecular Pharmacology Branch, DTP, NCI, 2025).)
